Laboratory results published in patent US20250255994A1, “DIMERIC IMMUNOCONJUGATES FOR USE IN TREATING CANCERS AND METHODS OF USE” (Medicovestor, Inc., priority 2023, published 2025).
“Also recorded” adds a separate entry of the source. Values belong to the molecule of their own block, whether it stands above or below them. Starred links: 1 amine or outer side, 2 acyl side, 3 side chain; linkers in the order of their positions; H or OH if unused. Non-standard residues stand in square brackets, D forms with d. Residues, ends and D or L forms follow the SMILES beside them. *: point of attachment. Exatecan = CC[C@@]1(O)C(=O)OCc2c1cc1n(c2=O)Cc2c-1nc1cc(F)c(C)c3c1c2[C@@H](N*)CC3; Hexanoyl(6-maleimido) = O=C1C=CC(=O)N1CCCCCC(=O)*; NHCH2OCH2CO = O=C(COCN[*:1])[*:2]

How the values were obtained:
SK-OV-3 cells [1] = test: SK-OV-3 cytotoxicity assay (luminescence), Example 4; conditions: 5 or 6 additional days; for Max Cytotoxicity: FIG. 9 axis: percent cytotoxicity
Experimental: SK-OV-3 cells were seeded at 1000, 2000, or 3000 cells per well and incubated overnight in advance of a cytotoxicity assay. […] The SK-OV-3 cells were treated with various concentrations of the SP17-AB2 antibody, the SP17-AB2-DXD immunoconjugate, a control human IgG4 antibody (hIgG4), or deruxtecan alone (DXD). The cells were incubated for 5 or 6 additional days, and cytotoxicity was then measured using a luminescence assay and En Vision™ plate reader (PerkinElmer, Massachusetts, United States).

ID8 cells = test: ID8 cytotoxicity assay, Example 4; assay type: cell-based, mouse; conditions: 3 additional days, FIG. 10 axis: percent cytotoxicity
Experimental: […] The cells were then treated with various concentrations of either the SP17-AB2 antibody, the SP17-AB2-DXD immunoconjugate, hIgG4, or deruxtecan alone. The cells were incubated for 3 additional days, and then cytotoxicity was measured.

SK-OV-3 cells [2] = test: SK-OV-3 cytotoxicity assay (luminescence), Example 9; assay type: cell-based, human; conditions: SK-OV-3 cells at 2000 cells/well; five additional days
Experimental: The SK-OV-3 cells are then treated with various concentrations of (1) the SP17-AB2 antibody, (2) the SP17-AB2-DXD immunoconjugate, (3) the SP17-AB2-Ozogamicin immunoconjugate, (4) both the SP17-AB2-DXD immunoconjugate and the SP17-AB2-Ozogamicin, (5) the dSP17-AB2-DXD/Ozogamicin immunoconjugate, (6) hdSP17-AB2, (7) hIgG4, or (8) deruxtecan. […] IC50s and maximum cytotoxicity are then determined.
The IC50 of (4) the combination of SP17-AB2-DXD and SP17-AB2-Ozogamicin is determined based on the concentration of SP17-AB2-DXD and SP17-AB2-Ozogamicin individually and not based on the combined concentration. For example, when SK-OV-3 cells are incubated at a concentration of SP17-AB2-DXD and SP17-AB2-Ozogamicin of 128 nanomolar each, then the IC50 is calculated based on the 128 nanomolar concentration (and not the 256 nanomolar combined concentration) so that 128 nanomolar of (4) SP17-AB2-DXD and SP17-AB2-Ozogamicin contains about the same concentration of deruxtecan, ozogamicin, and antigen-binding sites as 128 nanomolar of (5) the dSP17-AB2-DXD/Ozogamicin immunotherapeutic.

[3] = biological target: T1, recombinant 6His-Sp17 protein (human, UniProt Q15506 1-151); test: surface plasmon resonance, 6His-Sp17 at 6.25-300 nanomolar as analyte
T1 construct: Analyte of the surface plasmon resonance experiment; not shown: 6His tag
T1 sequence (looked up): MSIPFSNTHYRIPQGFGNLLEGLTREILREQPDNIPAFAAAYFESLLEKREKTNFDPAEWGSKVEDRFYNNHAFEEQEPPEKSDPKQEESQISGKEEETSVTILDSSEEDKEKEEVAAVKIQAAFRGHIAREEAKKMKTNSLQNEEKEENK
Source text: (§1) The lines correspond, from highest to lowest, to fitted cycles for 300 nanomolar, 100 nanomolar, 50 nanomolar, 25 nanomolar, 12.5 nanomolar, and 6.25 nanomolar concentrations of 6His-Sp17.
(§2) The nucleotide sequences encoding the VH and VL regions of Example 1 were cloned into a […] heavy chain gene and a mouse kappa light chain gene, respectively, and expressed in CHO-S cells to produce a mouse-human chimeric antibody, which was named chAB2. Successful generation of the antibody was confirmed by SDS-PAGE and western blotting using anti-mouse heavy and light chain antibodies and recombinant Sp17 protein (FIGS. 2 & 3). The chAB2 antibody was reactive to mouse surface Sp17 protein expressed on the mouse ovarian cancer cell line ID8 (FIG. 4).

[4] = biological target: T1, recombinant 6His-Sp17 protein; test: surface plasmon resonance (Biacore T200), 6His-Sp17 at 6.25-300 nanomolar as analyte
Source text: as §1, §2

[5] = biological target: T2, recombinant 6His-Sp17 protein (Homo sapiens, UniProt Q15506); test: Surface plasmon resonance (Biacore T200) of chAB2 binding to Sp17; conditions: SPR
T2 construct: 6His
T2 sequence (Q15506 1-151): T1 sequence (looked up)
Source text: as §1
as §2, with “3).” for “3). The chAB2 antibody was reactive to mouse surface Sp17 protein expressed on the mouse ovarian cancer cell line ID8 (FIG. 4).”

[6] = biological target: T3, mouse surface Sp17 protein expressed on the mouse ovarian cancer cell line ID8 (Mus musculus, UniProt Q62252); test: Flow cytometry of ID8 cells labeled with chAB2 and anti-mouse FITC antibody; assay type: cell-based; conditions: relative to anti-mouse FITC antibody alone
T3 construct: mouse surface Sp17 protein expressed on the mouse ovarian cancer cell line ID8; endogenous in cells; host or cells: ID8 mouse ovarian cancer cells
T3 sequence (Q62252 1-149): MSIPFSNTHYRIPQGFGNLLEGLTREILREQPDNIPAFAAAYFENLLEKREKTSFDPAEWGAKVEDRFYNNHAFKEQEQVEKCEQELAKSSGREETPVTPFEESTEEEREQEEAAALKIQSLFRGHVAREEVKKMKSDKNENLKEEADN
Experimental: FIG. 4 consists of three panels. The left panel is a graph that depicts flow cytometry results for ID8 cells incubated with an anti-mouse fluorescein isothiocyanate (FITC) antibody, but without a primary antibody. The middle panel is a graph that depicts flow cytometry results for ID8 cells labeled with the anti-Sp17 antibody chAB2 and the anti-mouse FITC antibody.
as §2, with “3).” for “3). The chAB2 antibody was reactive to mouse surface Sp17 protein expressed on the mouse ovarian cancer cell line ID8 (FIG. 4).”

33 normal human tissues = test: Immunohistochemistry on a normal tissue microarray (specificity); assay type: binding
Experimental: The specificity of the chAB2 antibody for Sp17 was determined with immunohistochemistry on a normal tissue microarray, which consisted of 33 normal tissues obtained from 2-3 human donors per tissue. The normal tissues included brain, eye, adrenal gland, hypophyseal, thyroid, parathyroid, tonsil, thymus, spleen, heart, lung, larynx, esophagus, stomach, small intestine, colon, liver, pancreas, salivary gland, kidney, bone, skeletal, skin, peripheral nerve, mesothelial, breast, ovary, endometrium, cervix, testis, and prostate.

[7] = SK-OV-3 cells at 1000 cells/well
[8] = SK-OV-3 cells at 2000 cells/well
[9] = SK-OV-3 cells at 3000 cells/well

Molecule: CC[C@@]1(O)C(=O)OCc2c1cc1n(c2=O)Cc2c-1nc1cc(F)c(C)c3c1c2[C@@H](NC(=O)COCNC(=O)CNC(=O)[C@H](Cc1ccccc1)NC(=O)CNC(=O)CNC(=O)CCCCCN1C(=O)C=CC1=O)CC3 [deruxtecan] ({Hexanoyl(6-maleimido)}-GGFG[NHCH2OCH2CO]-Exatecan)
IC50 (SK-OV-3 cells [1]; [7]): 0.75 nM | Max Cytotoxicity (SK-OV-3 cells [1]; [7]): 98 | IC50 (SK-OV-3 cells [1]; [8]): 1.1 nM | Max Cytotoxicity (SK-OV-3 cells [1]; [8]): 97 | IC50 (SK-OV-3 cells [1]; [9]): 1.2 nM | Max Cytotoxicity (SK-OV-3 cells [1]; [9]): 97 | Max Cytotoxicity (ID8 cells; ID8 cells at 250 cells/well): 94 | Max Cytotoxicity (ID8 cells; ID8 cells at 500 cells/well): 93 | Max Cytotoxicity (SK-OV-3 cells [2]): 97

koff [3]: 0.00013 s⁻¹ | kon [3]: 62600 M⁻¹ s⁻¹ | Kd [4]: 2.07 nM
B1: mouse-human chimeric anti-Sp17 IgG2a/kappa monoclonal antibody chAB2 (antibody, V domains shown)
VH: QVQLQQSGAEVKKPGSSVKVSCKASGGTFSSYAISWVRQAPGQGLEWMGRIIPILGIANYAQKFQGRVTITADKSTSTAYMELSSLRSEDTAVYYCARPSEEVVAAYGAFDIWGQGTTVTVSS
VL: EIVLTQSPLSLPVRPGEPASISCRASQSLLRSDGFNYLDWYLQKPGQSPQLLVYLGSNRASGVPDRFSGSGSGTDFTLKISRVEAEDVGVYYCMQAVQTPYIFGQGTKLEIK
notes: also called chimeric antibody; anti-Sp17 antibody chAB2

association rate constant (ka) ([5]; 6.25-300 nanomolar 6His-Sp17): 62,600 per mole per second | Kd ([5]; read-out: dissociation constant (KD)): ~2 nM | binding to testis (immunohistochemistry) (33 normal human tissues; testis tissue): bound to testis
B2: chAB2: mouse-human chimeric anti-Sp17 antibody: human VH/VL in mouse IgG2a heavy chain and mouse kappa light chain, expressed in CHO-S cells (antibody, V domains shown)
VH: B1 VH
VL: B1 VL
reactivity to surface Sp17 on ID8 cells (mean fluorescent intensity) [6]: reactive to mouse surface Sp17 protein; also recorded: increased mean fluorescent intensity | binding to / cross-reactivity with normal tissues (immunohistochemistry) (33 normal human tissues; 33 normal tissues, 2-3 human donors per tissue): lack detectable cross-reactivity; also recorded: did not bind to normal tissues
